The subject of assay [1] is U251 cells expressing Fluc construct. Description: control Fluc (full length luciferase) reporter assay in U251 cells. The conditions noted are these: for inhibition at 50 µM: Concn 50 uM. The format is cell-based. The protocol: The oncogenic activity of HuR is driven by subcellular localization into the cytoplasm and formation of multimers of HuR. To develop cell based assays to characterize the ability of small molecules to disrupt this process, a split luciferase assay detecting the formation of HuR dimers was developed. The assays were performed in 96 well plates with clear bottom (Corning Inc., Corning, NY). Cells with designed constructs (30,000-50,000 in number) were plated per well; the constructs were induced by doxycycline (0.75 ug/ml) for 48 hours. The evaluated compounds at different concentrations and the corresponding vehicle as the control were administered for 6 hours. The luminescence signals were detected by using InfinitiM200 plate reader (TECAN, Morrisville, NC) in the presence of the luciferase substrate luciferin (D-Luciferin, potassium salt), which was purchased from GoldBio (St Louis, MO). A multichannel pipette (XL 3000I™, Denville Scientific, South Plainfield, NJ) was used in all procedures to ensure the experiment quality. […]
(§1) Squares represent luminescence signal from reporter representing HuR dimers (U251 cells co-expressing HuR-Nluc and HuR-Cluc constructs); circles represent luminescence signal from control reporter (U251 cells expressing Fluc construct). Results are shown as mean+SD.
For orientation: In a reporter assay the amount or activity of a reporter protein is the signal.

In another assay the target is T1, HuR (Homo sapiens, UniProt Q15717).
T1 construct: expressed in transfected cells; host or cells: U251 glioma cells, doxycycline-inducible constructs
In words: cell-based split firefly luciferase-HuR dimerization assay. To be noted: for IC50: read-out: HuR IC50. The protocol:
The oncogenic activity of HuR is driven by subcellular localization into the cytoplasm and formation of multimers of HuR. To develop cell based assays to characterize the ability of small molecules to disrupt this process, a split luciferase assay detecting the formation of HuR dimers was developed. The assays were performed in 96 well plates with clear bottom (Corning Inc., Corning, NY). Cells with designed constructs (30,000-50,000 in number) were plated per well; the constructs were induced by doxycycline (0.75 ug/ml) for 48 hours. The evaluated compounds at different concentrations and the corresponding vehicle as the control were administered for 6 hours. The luminescence signals were detected by using InfinitiM200 plate reader (TECAN, Morrisville, NC) in the presence of the luciferase substrate luciferin (D-Luciferin, potassium salt), which was purchased from GoldBio (St Louis, MO). A multichannel pipette (XL 3000I™, Denville Scientific, South Plainfield, NJ) was used in all procedures to ensure the experiment quality.
The assay used the coding sequence of HuR in frame with the N-terminus of firefly luciferase or the C-terminus as depicted in FIG. 2A. When HuR forms dimers in this case, luciferase is generated and with luciferin present, luminescence is generated.
as §1

Setting [2] is: Homo sapiens, U-251, 6 h, read-out: Fluc Imax % Inh.
[3] abbreviates: U251 cells co-expressing HuR-Nluc and HuR-Cluc, 6 hours of treatment.
Setting [4] is: split luciferase HuR dimerization assay, compounds administered for 6 hours.

Where two headings read alike, the source gives them in different places.

T1 sequence (Q15717 whole entry): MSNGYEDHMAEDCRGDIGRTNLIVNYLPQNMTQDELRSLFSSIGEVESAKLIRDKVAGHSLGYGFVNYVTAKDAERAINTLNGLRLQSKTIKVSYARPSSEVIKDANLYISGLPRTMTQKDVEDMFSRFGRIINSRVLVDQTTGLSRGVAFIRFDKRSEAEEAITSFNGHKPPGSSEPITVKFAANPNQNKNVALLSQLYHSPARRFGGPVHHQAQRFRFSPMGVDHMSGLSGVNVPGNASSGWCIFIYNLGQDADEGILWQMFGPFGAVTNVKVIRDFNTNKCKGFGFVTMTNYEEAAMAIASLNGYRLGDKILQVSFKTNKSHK

The term IC50 denotes the concentration that gives 50% inhibition. On to `CN(c1ccc2ncc(-c3cnc4[nH]ncc4c3)n2n1)C1CCOCC1` [Compound 55, N-Methyl-3-(1H-pyrazolo[3,4-b]pyridin-5-yl)-N-(tetrahydro-2H-pyran-4-yl)imidazo[1,2-b]pyridazin-6-amine], for which, in assay [1] (setting [2]), the inhibition at 50 µM was found to be 10%. Besides, on HuR (Concn 50 uM), the “HuR N/C Imax % Inh” value stood at 90%. In addition, the IC50 on HuR (setting [3]) and on HuR (setting [4]) was 1.2 µM throughout.

As to `c1ccc(CNc2ccc3ncc(-c4ccc5[nH]ncc5c4)n3n2)cc1` [Compound 47, N-Benzyl-3-(1H-indazol-5-yl)imidazo[1,2-b]pyridazin-6-amine], the inhibition at 50 µM in assay [1] (setting [2]) was 24%. The “HuR N/C Imax % Inh” value on HuR (Concn 50 uM) was 93%. The IC50 on HuR (setting [3]) and at HuR (setting [4]) was 3 µM in each case.

On to `CN(CCNc1ccc2ncc(-c3ccc(C(N)=O)cc3)n2n1)C(=O)OC(C)(C)C` [SRI-43415], for which the inhibition at 50 µM in assay [1] (setting [2]) was 9%. Moreover, on HuR (Concn 50 uM), the “HuR N/C Imax % Inh” value amounted to 57%. In addition, the IC50 on HuR (setting [3]) stood at 40 µM.

Turning to `c1cc2[nH]ncc2cc1-c1cnc2ccc(N3CCOCC3)nn12` [Compound 51, 4-(3-(1H-Indazol-5-yl)imidazo[1,2-b]pyridazin-6-yl)morpholine], the inhibition at 50 µM in assay [1] (setting [2]) turned out to be 27%. The “HuR N/C Imax % Inh” value at HuR (Concn 50 uM) is 87%. Moreover, the IC50 at HuR (setting [3]) and at HuR (setting [4]) was 7 µM each time.

Consider `CCC(C)NS(=O)(=O)c1ccc2oc(=O)ccc2c1` (stereo not shown) [SRI-43652], for which, in assay [1] (setting [2]), the inhibition at 50 µM was 0%. For the same compound, the “HuR N/C Imax % Inh” value at HuR (Concn 50 uM) is 0%.

Take `COc1ccc(-c2[nH]ncc2C(=O)NCC2CC2)cc1Cl` [SRI-43649]: in assay [1] (setting [2]), the inhibition at 50 µM was found to be 0%. For the same compound, the “HuR N/C Imax % Inh” value at HuR (Concn 50 uM) came out at 0%.

For the compound `CN(c1ccc2ncc(-c3ccc4nccn4c3)n2n1)C1CCOCC1` [Compound 18, 3-(Imidazo[1,2-a]pyridin-6-yl)-N-methyl-N-(tetrahydro-2H-pyran-4-yl)imidazo[1,2-b]pyridazin-6-amine], in assay [1] (setting [2]), the inhibition at 50 µM amounted to 6%. Besides, the “HuR N/C Imax % Inh” value on HuR (Concn 50 uM) came out at 89%. For the same compound, the IC50 on HuR (setting [3]) and at HuR (setting [4]) was 3 µM in each case.

In the case of `CN(c1ccc2ncc(-c3ccc4[nH]ncc4c3)n2n1)C1CCOCC1` [Compound 40, 3-(1H-Indazol-5-yl)-N-methyl-N-(tetrahydro-2H-pyran-4-yl)imidazo[1,2-b]pyridazin-6-amine], the inhibition at 25 µM in assay [1] (Homo sapiens, U-251, 6 h, Concn 25 uM, read-out: Fluc Imax % Inh) is 23%. Further, at HuR (Concn 25 uM), the “HuR N/C Imax % Inh” value came to 90%. The IC50 at HuR (setting [4]) was 0.3 µM.

In the case of `O=C(C1CCCC1)N1CCN(C(=O)C2CC2c2ccc3c(c2)OCO3)CC1` (stereo not shown) [SRI-43655], the inhibition at 50 µM in assay [1] (setting [2]) worked out at 10%. The “HuR N/C Imax % Inh” value on HuR (Concn 50 uM) turned out to be 28%. The IC50 at HuR (setting [3]) is more than 50 µM.

`CN(c1ccc2ncc(-c3ccc4cnn(C)c4c3)n2n1)C1CCOCC1` [Compound 21, N-Methyl-3-(1-methyl-1H-indazol-6-yl)-N-(tetrahydro-2H-pyran-4-yl)imidazo[1,2-b]pyridazin-6-amine]: in assay [1] (setting [2]), the inhibition at 50 µM worked out at 28%. The “HuR N/C Imax % Inh” value at HuR (Concn 50 uM) was 71%. The IC50 at HuR (setting [3]) and on HuR (setting [4]) was 3.4 µM throughout.

`Cc1ccc(S(=O)(=O)NC(C(=O)Oc2ccc3c4c(c(=O)oc3c2C)CCC4)c2ccccc2)cc1` (stereo not shown) [SRI-43651]: the inhibition at 50 µM in assay [1] (setting [2]) came to 0%. In addition, the “HuR N/C Imax % Inh” value at HuR (Concn 50 uM) worked out at 0%.

For `CN1CCN(Cc2ccc(-c3cnc4[nH]cc(-c5ccc6[nH]ccc6c5)c4c3)cc2)CC1` [SRI-41647], in assay [1] (setting [2]), the inhibition at 50 µM turned out to be 4%. Besides, the “HuR N/C Imax % Inh” value at HuR (Concn 50 uM) is on record as 89%. The 50% inhibitory concentration (IC50) at HuR (setting [3]) is more than 25 µM.

As for `c1nn(C2CCOCC2)cc1Nc1ncc2nnn(-c3ccc4cn[nH]c4c3)c2n1` [Compound A-92], in assay [1] (6 hours, represents the cytotoxic effect), the “decrease of luminescence signal from cells overexpressing the control Fluc construct” value stood at 32±7%. For the same compound, the inhibition at 50 µM in assay [1] (setting [2]) worked out at 32%. At HuR (Concn 50 uM), the “HuR N/C Imax % Inh” value was determined as 93%. In addition, the half-inhibitory concentration (IC50) at HuR (setting [3]) stood at 4.5 µM. Besides, at HuR (after 6 hours of cell treatment), the “maximum inhibition of HuR dimerization” value is 93±2%.

The values are drawn from patent publication US12435091B2, “RNA-binding protein multimerization inhibitors and methods of use thereof” (THE UAB RESEARCH FOUNDATION, priority 2020, dated 2025).
